The values below come from patent publication US20240425478A1, “CYCLOPENTYLPYRAZOLE CDK2 INHIBITORS” (Genentech, Inc., priority 2021, published 2024).

SMILES strings stand for the structures. Where two headings read alike, the source gives them in different places. Bounds are passed on as bounds.

Assay [1] addresses T1, Cyclin Dependent Kinase 1/Cyclin A2 (CDK1-cycA2) (Homo sapiens, UniProt P06493).
T1 construct: purchased ProQinase 0134-0054-1
Put plainly: CDK1-cycA2 TR-FRET (Lance) enzyme assay. The assay is classed as biochemical. Conditions: Table O, enzymatic assay. An outline of the steps: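 TR-FRET (Lance) detection of phospho-4E-BP1 with a europium-labelled antibody after EDTA quench (15 mM final); signal taken as acceptor/donor ratio. Enzyme and compound were pre-incubated 30 min in HEPES pH 7.5 buffer with MgCl2, TCEP, BGG and Brij 35. Ki derived by Morrison fit.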
On the technique in general: Time-resolved FRET reads energy transfer from a long-lived donor to a nearby acceptor.

The target in assay [2] is T2, Cyclin Dependent Kinase 2/Cyclin E1 (CDK2-cycE1) (Homo sapiens, UniProt P24941).
T2 construct: purchased ProQinase 0050-0055-1
Put plainly: CDK2-cycE1 TR-FRET (LANCE) enzyme assay.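 On improvement in potency against CDK2 (Ki) over Comparator C: fold lower CDK2 Ki than comparator c (Ki 0.032 µM).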 The class given is biochemical. Conditions: for FS CDK1/CDK2 / FS CDK4/CDK2: fold selectivity; for increased fold-selectivity CDK4/CDK2 over Comparator C: (+) sign after FS CDK4/CDK2. The essentials: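 Kinase reaction buffer: 50 mM HEPES pH 7.5, 10 mM MgCl2, 2 mM TCEP, 0.05% BGG, 0.01% Brij 35, with 30 min compound–enzyme pre-incubation.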

Assay [3] concerns the target T3, Cyclin Dependent Kinase 4/Cyclin D3 (CDK4-cycD3) (Homo sapiens, UniProt P11802).
T3 construct: purchased Carna Biosciences 04-105
Put plainly: CDK4-cycD3 TR-FRET (LANCE) enzyme assay. The assay is classed as biochemical. Conditions: Table O, enzymatic assay. An outline of the steps: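 Compound dose responses pre-incubated 30 min with enzyme mix in 50 mM HEPES pH 7.5, 10 mM MgCl2, 2 mM TCEP, 0.05% BGG, 0.01% Brij 35. Reaction quenched with EDTA (15 mM final); Eu-anti-phospho-4E-BP1 TR-FRET detection, acceptor/donor ratio. Ki derived by Morrison equation.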

The subject of assay [4] is OVISE (JCRB1043, CCNE1-amplified). As to the kind of experiment: OVISE EdU incorporation cell proliferation assay (CDK2-dependent). Conditions: for IC50: cellular assay, read-out: CDK2 OVISE IC50; for FS SKOV-3/OVISE / FS p-H3/OVISE: fold selectivity; for FS p-H3/OVISE: cellular p-H3 IC50 over OVISE IC50; for increased fold-selectivity SKOV-3/OVISE over Comparator C: (+) sign after FS SKOV-3/OVISE; for improvement in CDK2 OVISE cell potency over Comparator C: in brackets after OVISE IC50, Comparator C 5.5 μM. The class given is cell-based. An outline of the steps:
(§1)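 EdU incorporation (0.5 μM final, last 8 h) follows a 16 h compound exposure at 37 °C, 5% CO2 in RPMI plus 10% FBS, 0.5% DMSO. After fixation, imaging scores EdU-positive cells; a 4-parameter logistic fit of that fraction gives IC50.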

The test system of another assay is SKOV-3 (ATCC HTB-77). As to the kind of experiment: SKOV-3 EdU incorporation cell proliferation assay (CDK4/6-dependent). The conditions noted are these: Homo sapiens, cellular assay, read-out: CDK4/6 SKOV-3 IC50. The class given is cell-based. An outline of the steps: as §1
The subject of a further assay is HCT116 cells. As to the kind of experiment: p-H3 HCT-116 mitotic release cell proliferation assay (cellular CDK1). The assay is classed as cell-based. The conditions noted are these: Homo sapiens, HCT-116; Table O, cellular assay; read-out: CDK1 p-H3 IC50. The essentials: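 Phospho-Histone H3 (Ser10) in lysates was quantified by a two-antibody HTRF FRET read (≥2 h, room temperature). Before this, HCT116 cells held in mitosis by 16 h of 500 nM nocodazole were treated with compound for 4 h at 37 °C, 0.1% DMSO.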

Setting [5] is: Table O, enzymatic assay, read-out: CDK2 Ki.
The mark [6] stands for this setting: Table O, enzymatic CDK1 Ki over CDK2 Ki.
[7] abbreviates: Table O, enzymatic CDK4 Ki over CDK2 Ki.
Where [8] appears, read: Table Q, enzymatic assay, read-out: CDK2 Ki.
Setting [9] is: Table O, cellular SKOV-3 IC50 over OVISE IC50.

T3 sequence (P11802 whole entry): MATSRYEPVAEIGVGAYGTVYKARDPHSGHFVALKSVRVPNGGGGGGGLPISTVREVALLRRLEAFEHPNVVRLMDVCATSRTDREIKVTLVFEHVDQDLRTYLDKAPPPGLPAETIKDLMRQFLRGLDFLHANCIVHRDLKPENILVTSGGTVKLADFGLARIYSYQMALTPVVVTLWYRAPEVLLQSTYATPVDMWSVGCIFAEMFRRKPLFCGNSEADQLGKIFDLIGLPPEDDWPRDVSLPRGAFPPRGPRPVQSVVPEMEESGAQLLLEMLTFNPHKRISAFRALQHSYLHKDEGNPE
T3 sequence (P30281 whole entry partner): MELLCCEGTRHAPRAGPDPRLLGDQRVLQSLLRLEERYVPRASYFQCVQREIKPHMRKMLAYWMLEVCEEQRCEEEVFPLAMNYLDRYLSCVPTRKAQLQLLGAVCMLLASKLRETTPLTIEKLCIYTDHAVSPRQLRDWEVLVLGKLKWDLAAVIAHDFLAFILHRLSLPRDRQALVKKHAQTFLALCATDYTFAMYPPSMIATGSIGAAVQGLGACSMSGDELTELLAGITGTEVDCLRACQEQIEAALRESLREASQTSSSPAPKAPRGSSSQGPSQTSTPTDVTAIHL
T1 sequence (P06493 whole entry): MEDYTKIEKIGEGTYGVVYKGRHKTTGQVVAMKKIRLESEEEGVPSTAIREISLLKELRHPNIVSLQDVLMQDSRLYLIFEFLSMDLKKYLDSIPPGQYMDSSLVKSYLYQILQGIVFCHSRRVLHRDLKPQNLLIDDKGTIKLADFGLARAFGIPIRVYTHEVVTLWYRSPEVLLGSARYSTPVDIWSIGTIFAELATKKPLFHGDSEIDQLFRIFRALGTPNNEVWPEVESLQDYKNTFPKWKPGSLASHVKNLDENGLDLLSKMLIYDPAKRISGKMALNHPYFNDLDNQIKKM
T1 sequence (P20248 whole entry partner): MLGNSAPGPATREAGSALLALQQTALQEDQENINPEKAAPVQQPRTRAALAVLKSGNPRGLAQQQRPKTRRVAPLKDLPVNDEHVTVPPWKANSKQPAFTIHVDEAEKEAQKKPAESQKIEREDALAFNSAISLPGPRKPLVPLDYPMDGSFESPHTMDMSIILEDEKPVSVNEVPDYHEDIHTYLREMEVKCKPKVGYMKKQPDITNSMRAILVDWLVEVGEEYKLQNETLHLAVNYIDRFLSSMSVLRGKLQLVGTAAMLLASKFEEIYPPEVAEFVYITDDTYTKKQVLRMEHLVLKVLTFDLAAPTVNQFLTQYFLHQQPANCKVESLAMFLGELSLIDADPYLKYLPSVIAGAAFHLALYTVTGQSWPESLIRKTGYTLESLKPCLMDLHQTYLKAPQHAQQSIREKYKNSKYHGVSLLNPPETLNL

As to `CC(C)NC(=O)O[C@@H]1CC[C@H](c2cc(Nc3ccnc(N(C)C)n3)n[nH]2)C1` [Example 2I, (1R,3S)-3-(3-((2-(dimethylamino)pyrimidin-4-yl)amino)-1H-pyrazol-5-yl)cyclopentyl isopropylcarbamate], the Ki is 6 nM in assay [1]; 0.31 nM in assay [2] (setting [5]); 0.31 nM in assay [2] (setting [8]); ≤ 1 nM in assay [2] (read-out: CDK2 activity / potency (enzymatic assay)); 27 nM in assay [3]. Also, in assay [2], the “improvement in potency against CDK2 (Ki) over Comparator C” value (shortened to “improvement … (Ki) over Comparator C”) was 103 fold. In addition, the “FS CDK1/CDK2” value in assay [2] (setting [6]) worked out at 19; in assay [2] (Table Q, enzymatic), 19. The “FS CDK4/CDK2” value is listed as 87 in assay [2] (setting [7]) and 87 in assay [2] (Table Q, enzymatic). In addition, the “increased fold-selectivity CDK4/CDK2 over Comparator C” value (“increased fold-selectivity CDK4/CDK2” below) in assay [2] (Table Q) is reported as “(+) (The (+) sign in Table Q signifies desirable increased fold-selectivity of the exemplary compounds over Comparator C)”. Besides, the IC50 in assay [4] (Table O) is 67 nM; with SKOV-3 (ATCC HTB-77) (SK-OV-3, Table O), 1000 nM; with SKOV-3 (ATCC HTB-77) (SK-OV-3, Table Q) it was 1000 nM; in the assay with HCT116 cells it was 9.4 nM. Also, the “FS SKOV-3/OVISE” value in assay [4] (setting [9]) is 15; in assay [4] (Table Q, cellular), 15. Further, the “FS p-H3/OVISE” value in assay [4] (Table O) is given as 0.14. The “increased fold-selectivity SKOV-3/OVISE over Comparator C” value (from here on “increased fold-selectivity SKOV-3/OVISE”) in assay [4] (Table Q) is on record as “(+) (The (+) sign in Table Q signifies desirable increased fold-selectivity of the exemplary compounds over Comparator C)”. Further, in assay [4] (Table Q), the “improvement in CDK2 OVISE cell potency over Comparator C” value is reported as 82 fold.
Consider `Cc1cncc(Nc2cc([C@H]3CC[C@@H](OC(=O)NC(C)C)C3)[nH]n2)c1` [Example 2K, (1R,3S)-3-(3-((5-methylpyridin-3-yl)amino)-1H-pyrazol-5-yl)cyclopentyl isopropylcarbamate], for which the Ki in assay [1] was 59 nM; in assay [2] (setting [5]), 3.2 nM; in assay [2] (setting [8]), 3.2 nM; in assay [3] it was 340 nM. Besides, in assay [2], the “improvement … (Ki) over Comparator C” value is listed as 10 fold. Moreover, the “FS CDK1/CDK2” value in assay [2] (setting [6]) worked out at 18; in assay [2] (Table Q, enzymatic), 18. The “FS CDK4/CDK2” value in assay [2] (setting [7]) stood at 110; in assay [2] (Table Q, enzymatic) it was 110. Further, in assay [2] (Table Q), the “increased fold-selectivity CDK4/CDK2” value is given as “(+) (The (+) sign in Table Q signifies desirable increased fold-selectivity of the exemplary compounds over Comparator C)”. Besides, the IC50 in assay [4] (Table O) worked out at 190 nM; with SKOV-3 (ATCC HTB-77) (SK-OV-3, Table O), 7700 nM; in the assay on SKOV-3 (ATCC HTB-77) (SK-OV-3, Table Q) it was 7700 nM; in the assay on HCT116 cells it was 87 nM. Further, the “FS SKOV-3/OVISE” value stood at 41 in assay [4] (setting [9]) and 41 in assay [4] (Table Q, cellular). In addition, the “FS p-H3/OVISE” value in assay [4] (Table O) was determined as 0.46. For the same molecule, the “increased fold-selectivity SKOV-3/OVISE” value in assay [4] (Table Q) was “(+) (The (+) sign in Table Q signifies desirable increased fold-selectivity of the exemplary compounds over Comparator C)”. For the same molecule, the “improvement in CDK2 OVISE cell potency over Comparator C” value in assay [4] (Table Q) stood at 28.9 fold.
For `CC(C)NC(=O)O[C@@H]1CC[C@H](c2cc(Nc3ccnc(C(F)(F)F)n3)n[nH]2)C1` [Example 2L, (1R,3S)-3-(3-((2-(trifluoromethyl)pyrimidin-4-yl)amino)-1H-pyrazol-5-yl)cyclopentyl isopropylcarbamate], the Ki in assay [1] turned out to be 2.9 nM; in assay [2] (setting [5]), 0.17 nM; in assay [2] (setting [8]), 0.17 nM; in assay [3], 110 nM. In addition, the “improvement … (Ki) over Comparator C” value in assay [2] was found to be 188 fold. Besides, the “FS CDK1/CDK2” value worked out at 17 in assay [2] (setting [6]) and 17 in assay [2] (Table Q, enzymatic). Also, the “FS CDK4/CDK2” value was found to be 650 in assay [2] (setting [7]) and 650 in assay [2] (Table Q, enzymatic). Moreover, in assay [2] (Table Q), the “increased fold-selectivity CDK4/CDK2” value is listed as “(+) (The (+) sign in Table Q signifies desirable increased fold-selectivity of the exemplary compounds over Comparator C)”. The IC50 is 12 nM in assay [4] (Table O); 640 nM in the assay with SKOV-3 (ATCC HTB-77) (SK-OV-3, Table O); 640 nM in the assay on SKOV-3 (ATCC HTB-77) (SK-OV-3, Table Q); 1.8 nM in the assay on HCT116 cells. Besides, the “FS SKOV-3/OVISE” value worked out at 53 in assay [4] (setting [9]) and 53 in assay [4] (Table Q, cellular). Also, the “FS p-H3/OVISE” value in assay [4] (Table O) is given as 0.15. For the same molecule, the “increased fold-selectivity SKOV-3/OVISE” value in assay [4] (Table Q) is listed as “(+) (The (+) sign in Table Q signifies desirable increased fold-selectivity of the exemplary compounds over Comparator C)”. The “improvement in CDK2 OVISE cell potency over Comparator C” value in assay [4] (Table Q) is 458 fold.
Consider `Cc1cncc(Nc2cc([C@H]3CC[C@@H](OC(=O)NC(C)C)C3)[nH]n2)n1` [Example 2M, (1R,3S)-3-(3-((6-methylpyrazin-2-y1)amino)-1H-pyrazol-5-yl)cyclopentyl isopropylcarbamate], for which the Ki in assay [1] worked out at 6.3 nM; in assay [2] (setting [5]), 0.26 nM; in assay [2] (setting [8]), 0.26 nM; in assay [3] it was 28 nM. In addition, in assay [2], the “improvement … (Ki) over Comparator C” value is 123 fold. The “FS CDK1/CDK2” value was 24 in assay [2] (setting [6]) and 24 in assay [2] (Table Q, enzymatic). Further, the “FS CDK4/CDK2” value in assay [2] (setting [7]) is 110; in assay [2] (Table Q, enzymatic) it was 110. For the same molecule, the “increased fold-selectivity CDK4/CDK2” value in assay [2] (Table Q) was “(+) (The (+) sign in Table Q signifies desirable increased fold-selectivity of the exemplary compounds over Comparator C)”. The IC50 in assay [4] (Table O) was 20 nM; in the assay on SKOV-3 (ATCC HTB-77) (SK-OV-3, Table O), 580 nM; with SKOV-3 (ATCC HTB-77) (SK-OV-3, Table Q), 580 nM; with HCT116 cells it was 7 nM. Further, the “FS SKOV-3/OVISE” value in assay [4] (setting [9]) is 29; in assay [4] (Table Q, cellular) it was 29. In assay [4] (Table O), the “FS p-H3/OVISE” value is recorded as 0.35. The “increased fold-selectivity SKOV-3/OVISE” value in assay [4] (Table Q) is recorded as “(+) (The (+) sign in Table Q signifies desirable increased fold-selectivity of the exemplary compounds over Comparator C)”. Besides, in assay [4] (Table Q), the “improvement in CDK2 OVISE cell potency over Comparator C” value is 275 fold.
For `COc1cncc(Nc2cc([C@H]3CC[C@@H](OC(=O)NC(C)C)C3)[nH]n2)n1` [Example 2N, (1R,3S)-3-(3-((6-methoxypyrazin-2-yl)amino)-1H-pyrazol-5-yl)cyclopenty1 isopropylcarbamate], the Ki in assay [1] worked out at 3.7 nM; in assay [2] (setting [5]) it was 0.49 nM; in assay [2] (setting [8]) it was 0.49 nM; in assay [3] it was 26 nM. In addition, the “improvement … (Ki) over Comparator C” value in assay [2] came to 65 fold. For the same molecule, the “FS CDK1/CDK2” value in assay [2] (setting [6]) was 7.6; in assay [2] (Table Q, enzymatic), 7.6. Moreover, the “FS CDK4/CDK2” value in assay [2] (setting [7]) was found to be 53; in assay [2] (Table Q, enzymatic) it was 53. Moreover, in assay [2] (Table Q), the “increased fold-selectivity CDK4/CDK2” value was “(+) (The (+) sign in Table Q signifies desirable increased fold-selectivity of the exemplary compounds over Comparator C)”. Besides, the IC50 in assay [4] (Table O) is 29 nM; in the assay on SKOV-3 (ATCC HTB-77) (SK-OV-3, Table O), 1200 nM; in the assay with SKOV-3 (ATCC HTB-77) (SK-OV-3, Table Q), 1200 nM; in the assay with HCT116 cells it was 11 nM. Moreover, the “FS SKOV-3/OVISE” value was found to be 41 in assay [4] (setting [9]) and 41 in assay [4] (Table Q, cellular). Also, the “FS p-H3/OVISE” value in assay [4] (Table O) came to 0.38. Besides, the “increased fold-selectivity SKOV-3/OVISE” value in assay [4] (Table Q) is “(+) (The (+) sign in Table Q signifies desirable increased fold-selectivity of the exemplary compounds over Comparator C)”. Further, the “improvement in CDK2 OVISE cell potency over Comparator C” value in assay [4] (Table Q) worked out at 190 fold.
